The values that follow come from ChEMBL document CHEMBL4184286, “Discovery of morpholine-based aryl sulfonamides as Nav1.7 inhibitors” (Bioorg Med Chem Lett, 2018).

Assay [1] has as its target T1, Sodium channel protein type 9 subunit alpha (Homo sapiens, UniProt Q15858). Description: Antagonist activity at recombinant human Nav1.7 expressed in HEK293 cells assessed as reduction in channel current at -60 mV holding potential after 600 secs by barracuda automated electrophysiology method. It is filed as cell-based.
Target sequence in this assay (Q15858 whole entry): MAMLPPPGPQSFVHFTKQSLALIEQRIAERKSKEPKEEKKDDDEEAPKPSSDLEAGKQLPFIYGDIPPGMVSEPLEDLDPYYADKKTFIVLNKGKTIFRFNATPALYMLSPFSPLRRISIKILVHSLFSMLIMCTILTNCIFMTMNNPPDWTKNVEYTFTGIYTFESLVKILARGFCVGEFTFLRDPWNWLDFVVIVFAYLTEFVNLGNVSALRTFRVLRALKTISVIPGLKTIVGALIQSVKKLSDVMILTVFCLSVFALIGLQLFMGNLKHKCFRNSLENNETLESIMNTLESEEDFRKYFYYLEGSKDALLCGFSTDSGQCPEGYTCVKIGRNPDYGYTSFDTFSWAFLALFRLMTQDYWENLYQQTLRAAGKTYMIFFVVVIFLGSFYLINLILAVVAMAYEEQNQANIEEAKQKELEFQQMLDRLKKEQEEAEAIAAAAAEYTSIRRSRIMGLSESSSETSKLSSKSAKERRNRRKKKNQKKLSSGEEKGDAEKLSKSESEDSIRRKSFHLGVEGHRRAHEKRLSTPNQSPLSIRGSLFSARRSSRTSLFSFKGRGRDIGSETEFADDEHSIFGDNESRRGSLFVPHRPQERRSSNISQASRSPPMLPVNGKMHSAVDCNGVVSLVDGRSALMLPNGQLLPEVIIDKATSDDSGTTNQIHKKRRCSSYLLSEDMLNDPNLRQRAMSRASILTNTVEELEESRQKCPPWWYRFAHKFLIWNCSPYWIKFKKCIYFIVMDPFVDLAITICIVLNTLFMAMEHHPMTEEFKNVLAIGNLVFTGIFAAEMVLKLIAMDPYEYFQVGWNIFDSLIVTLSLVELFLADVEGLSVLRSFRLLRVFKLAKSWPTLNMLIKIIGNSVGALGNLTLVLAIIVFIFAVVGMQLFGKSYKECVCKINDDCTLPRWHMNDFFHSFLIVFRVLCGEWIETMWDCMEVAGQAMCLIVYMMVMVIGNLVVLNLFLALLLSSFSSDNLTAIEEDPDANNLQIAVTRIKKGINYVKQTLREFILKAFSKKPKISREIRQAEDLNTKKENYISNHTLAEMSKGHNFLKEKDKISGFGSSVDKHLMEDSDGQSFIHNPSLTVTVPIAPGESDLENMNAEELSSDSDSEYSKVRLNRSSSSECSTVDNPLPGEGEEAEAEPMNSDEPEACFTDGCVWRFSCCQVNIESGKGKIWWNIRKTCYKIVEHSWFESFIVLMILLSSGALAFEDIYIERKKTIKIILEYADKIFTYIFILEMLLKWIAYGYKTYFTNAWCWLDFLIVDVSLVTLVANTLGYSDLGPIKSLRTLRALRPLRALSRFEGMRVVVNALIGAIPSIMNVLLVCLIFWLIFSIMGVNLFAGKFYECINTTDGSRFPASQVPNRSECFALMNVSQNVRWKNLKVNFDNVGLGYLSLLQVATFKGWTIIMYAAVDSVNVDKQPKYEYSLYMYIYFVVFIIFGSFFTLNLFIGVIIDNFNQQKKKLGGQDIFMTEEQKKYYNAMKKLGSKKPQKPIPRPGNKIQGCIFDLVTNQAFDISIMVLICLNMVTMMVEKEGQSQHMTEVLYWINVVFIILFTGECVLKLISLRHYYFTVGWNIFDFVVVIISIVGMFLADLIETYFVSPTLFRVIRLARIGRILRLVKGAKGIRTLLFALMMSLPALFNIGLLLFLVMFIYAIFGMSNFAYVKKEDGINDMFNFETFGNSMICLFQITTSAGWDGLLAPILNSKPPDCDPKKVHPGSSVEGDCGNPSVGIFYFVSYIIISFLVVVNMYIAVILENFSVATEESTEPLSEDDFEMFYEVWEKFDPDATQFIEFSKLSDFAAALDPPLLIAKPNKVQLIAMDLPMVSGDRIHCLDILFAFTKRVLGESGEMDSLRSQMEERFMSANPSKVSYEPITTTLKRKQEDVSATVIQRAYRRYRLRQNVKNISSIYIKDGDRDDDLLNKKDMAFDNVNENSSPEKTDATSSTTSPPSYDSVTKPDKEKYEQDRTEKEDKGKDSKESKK
The target of assay [2] is Sodium channel protein type 5 subunit alpha (Homo sapiens, UniProt Q14524). The assay is described as follows: Antagonist activity at recombinant human Nav1.5 expressed in HEK293 cells assessed as reduction in channel current at -50 mV holding potential after 600 secs by barracuda automated electrophysiology method. It is filed as ADME, cell-based.
Sequence of Sodium channel protein type 5 subunit alpha (Q14524 whole entry): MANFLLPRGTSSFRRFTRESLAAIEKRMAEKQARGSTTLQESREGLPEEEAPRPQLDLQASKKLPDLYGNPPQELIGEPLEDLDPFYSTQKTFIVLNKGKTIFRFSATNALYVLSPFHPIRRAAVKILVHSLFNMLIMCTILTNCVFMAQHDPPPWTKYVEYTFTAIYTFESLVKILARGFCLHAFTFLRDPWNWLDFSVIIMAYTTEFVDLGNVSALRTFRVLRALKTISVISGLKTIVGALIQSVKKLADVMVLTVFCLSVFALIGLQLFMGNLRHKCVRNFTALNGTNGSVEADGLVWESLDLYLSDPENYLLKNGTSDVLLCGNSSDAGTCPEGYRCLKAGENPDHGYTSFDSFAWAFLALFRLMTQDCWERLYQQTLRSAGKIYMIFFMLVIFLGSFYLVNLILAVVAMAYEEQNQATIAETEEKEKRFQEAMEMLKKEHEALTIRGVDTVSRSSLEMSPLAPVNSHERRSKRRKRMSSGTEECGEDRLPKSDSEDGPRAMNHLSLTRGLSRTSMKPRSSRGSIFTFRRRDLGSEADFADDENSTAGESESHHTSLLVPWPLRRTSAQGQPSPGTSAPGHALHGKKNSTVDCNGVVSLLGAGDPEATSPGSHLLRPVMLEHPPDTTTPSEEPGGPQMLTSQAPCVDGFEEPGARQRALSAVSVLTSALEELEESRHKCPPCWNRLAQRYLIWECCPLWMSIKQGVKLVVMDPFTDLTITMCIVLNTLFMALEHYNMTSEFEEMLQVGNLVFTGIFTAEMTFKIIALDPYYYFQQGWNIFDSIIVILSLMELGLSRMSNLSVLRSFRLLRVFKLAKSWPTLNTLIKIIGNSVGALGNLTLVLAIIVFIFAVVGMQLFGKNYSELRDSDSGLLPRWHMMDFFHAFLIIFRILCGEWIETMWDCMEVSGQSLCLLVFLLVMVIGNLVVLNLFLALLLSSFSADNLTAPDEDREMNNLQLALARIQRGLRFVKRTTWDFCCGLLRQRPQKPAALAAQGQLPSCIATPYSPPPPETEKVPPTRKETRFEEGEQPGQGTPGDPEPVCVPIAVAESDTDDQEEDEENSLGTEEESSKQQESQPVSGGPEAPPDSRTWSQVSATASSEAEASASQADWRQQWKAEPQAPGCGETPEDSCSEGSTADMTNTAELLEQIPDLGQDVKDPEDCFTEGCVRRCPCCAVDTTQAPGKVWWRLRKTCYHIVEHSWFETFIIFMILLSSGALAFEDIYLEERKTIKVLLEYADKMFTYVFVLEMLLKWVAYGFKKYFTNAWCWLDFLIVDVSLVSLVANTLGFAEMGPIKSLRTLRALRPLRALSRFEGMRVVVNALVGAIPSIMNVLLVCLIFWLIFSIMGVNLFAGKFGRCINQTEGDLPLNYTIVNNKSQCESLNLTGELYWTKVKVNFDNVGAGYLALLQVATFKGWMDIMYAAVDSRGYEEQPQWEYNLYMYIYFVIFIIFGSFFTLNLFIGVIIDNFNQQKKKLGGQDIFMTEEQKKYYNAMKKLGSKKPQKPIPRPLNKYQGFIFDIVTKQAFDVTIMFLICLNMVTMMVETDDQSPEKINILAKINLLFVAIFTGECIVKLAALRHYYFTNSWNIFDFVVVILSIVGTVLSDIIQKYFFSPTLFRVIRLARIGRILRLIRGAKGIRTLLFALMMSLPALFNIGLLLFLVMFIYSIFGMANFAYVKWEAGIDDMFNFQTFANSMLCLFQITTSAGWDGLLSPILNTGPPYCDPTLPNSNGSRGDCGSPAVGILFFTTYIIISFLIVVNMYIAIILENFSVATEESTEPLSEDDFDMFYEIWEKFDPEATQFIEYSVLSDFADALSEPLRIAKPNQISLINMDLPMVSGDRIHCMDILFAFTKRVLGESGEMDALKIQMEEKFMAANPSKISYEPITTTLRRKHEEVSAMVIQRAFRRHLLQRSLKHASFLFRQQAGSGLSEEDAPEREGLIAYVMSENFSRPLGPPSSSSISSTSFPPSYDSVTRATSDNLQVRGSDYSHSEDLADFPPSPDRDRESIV
The target of assay [3] is T1, Sodium channel protein type 9 subunit alpha. Description: Antagonist activity at recombinant human Nav1.7 expressed in HEK293 cells assessed as reduction in peak inward current at -65 mV holding potential by patch clamp electrophysiology. It is filed as cell-based. For orientation: The patch-clamp technique gives a direct electrical read-out from membranes.
Target sequence in this assay (Q15858 whole entry): as the sequence (Q15858 whole entry) above
For assay [4] the target is unchanged. Description: Antagonist activity at recombinant human Nav1.7 expressed in HEK293 cells assessed as reduction in peak inward current at 100 nM at -120 mV holding potential by patch clamp electrophysiology. The class given is cell-based.
Target sequence in this assay (Q15858 whole entry, looked up): as the sequence (Q15858 whole entry) above
For assay [5] the target is unchanged. The assay is described as follows: Antagonist activity at recombinant human Nav1.7 expressed in HEK293 cells assessed as reduction in peak inward current at 1 uM at -120 mV holding potential by patch clamp electrophysiology. The class given is cell-based.
Target sequence in this assay (Q15858 whole entry, looked up): as the sequence (Q15858 whole entry) above
Assay [6] deals with Sodium channel protein type 2 subunit alpha (Homo sapiens, UniProt Q99250). Description: Antagonist activity at recombinant human Nav1.2 assessed as reduction in channel current by barracuda automated electrophysiology method.
Assay [7] concerns the target Sodium channel protein type 8 subunit alpha (Homo sapiens, UniProt Q9UQD0). Description: Antagonist activity at recombinant human Nav1.6 assessed as reduction in channel current by barracuda automated electrophysiology method.

In the case of `CC1(C)CN[C@H](c2cc(Cl)cc(Cl)c2)[C@@H](Oc2cc(F)c(S(=O)(=O)Nc3ncns3)cc2F)O1`, the IC50 in assay [1] came to 0.041 µM; in assay [2] it was 6 µM; in assay [3] it was 0.011 µM; in assay [6], 1.5 µM; in assay [7] it was 1.6 µM. Also, the inhibition was found to be 8% in assay [4] and 48% in assay [5].
Turning to `N#Cc1cccc(C2NCCOC2Oc2cc(F)c(S(=O)(=O)Nc3ncns3)cc2F)c1` (single isomer, unassigned; isomer B), the IC50 was 11 µM in assay [1] and greater than 30 µM in assay [2] (hek293).
`CC1(C)CN[C@@H](c2cc(Cl)cc(Cl)c2)[C@H](Oc2cc(F)c(S(=O)(=O)Nc3ncns3)cc2F)O1`: the results for the half-inhibitory concentration (IC50) in assay [1] and in assay [2] were 3.3 µM and 4.4 µM, respectively.

By IC50 is commonly meant the concentration needed to halve the response being measured. In general, inhibition refers to the change of the read-out against control, counted positive when it falls.
